Measurements taken from paper PMC11956017, “Design of Benzyl-triazolopyrimidine-Based NADPH Oxidase Inhibitors Leads to the Discovery of a Potent Dual Covalent NOX2/MAOB Inhibitor” (Journal of Medicinal Chemistry, 2025).
Values joined by “and” are separate entries in the source; they are usually repeats but may differ in a detail not shown here. Identical values can stand only once. “Also recorded” adds a separate entry of the source.

Key:
bovine albumin = target: T1, bovine albumin (Bos taurus, UniProt P02769); experiment: Native mass spectrometry of BSA reactivity; type: binding; settings: BSA 1 µM, compound 5 µM and 20 µM, pH 7.5, 30 minutes
T1 construct: Bovine serum albumin (BSA, Sigma Aldrich, A7030); purchased Sigma Aldrich A7030; host or cells: bovine serum
T1 sequence (P02769 25-607): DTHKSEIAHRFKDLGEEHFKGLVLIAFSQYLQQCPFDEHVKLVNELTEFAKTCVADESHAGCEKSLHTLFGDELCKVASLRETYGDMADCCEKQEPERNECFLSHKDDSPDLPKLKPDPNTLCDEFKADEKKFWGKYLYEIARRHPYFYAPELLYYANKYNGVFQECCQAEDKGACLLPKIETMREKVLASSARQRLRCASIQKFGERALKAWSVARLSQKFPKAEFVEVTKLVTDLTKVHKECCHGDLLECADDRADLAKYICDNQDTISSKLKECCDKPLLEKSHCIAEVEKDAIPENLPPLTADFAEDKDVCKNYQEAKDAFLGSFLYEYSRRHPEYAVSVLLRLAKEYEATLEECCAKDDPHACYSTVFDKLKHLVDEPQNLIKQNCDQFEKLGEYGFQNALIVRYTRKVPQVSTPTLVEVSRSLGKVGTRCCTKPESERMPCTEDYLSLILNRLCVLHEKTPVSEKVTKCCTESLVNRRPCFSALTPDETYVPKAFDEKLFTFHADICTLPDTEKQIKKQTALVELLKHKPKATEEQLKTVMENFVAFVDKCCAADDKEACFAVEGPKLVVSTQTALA
Experimental: Protein samples were buffer-exchanged into 200 mM ammonium acetate (pH 7.5) through dialysis prior to native MS analyses. These samples were directly introduced into the mass spectrometer using gold-coated capillary needles prepared in-house.[63] Data were collected on a Q Exactive UHMR hybrid quadrupole-Orbitrap mass spectrometer (Thermo Fisher) with positive polarity. The instrument parameters used for MS spectra collection were the following: capillary voltage, 1.2 kV; scan range from 1000 to 20,000 m/z; HCD collision energy, 0–100 V; source fragmentation, 0 V; in-source trapping, 0 V. The ion transfer optics was set as follows: injection flatapole, 5 V; interflatapole lens, 4 V; bent flatapole, 2 V; transfer multipole, 0 V. The resolution of the instrument was 17,500 at m/z = 200 (transient time of 64 ms), the nitrogen pressure in the HCD cell was maintained at approximately 4 × 10^–10 mbar, and the source temperature was kept at 100 °C. The noise level was set at 3 rather than the default value of 4.64. Calibration of the instruments was performed using 10 mg/mL solution of cesium iodide in water. Data were analyzed using Xcalibur 3.0 (Thermo Scientific), NaViA,[64] and UniDec software packages.[65]

csNOX5 dehydrogenase = experiment: Intact protein mass spectrometry of csNOX5 dehydrogenase; type: binding, Cylindrospermum stagnale
Experimental: Approximately 1 mg mL^-1 protein was incubated with 300 μM FAD and 1 mM 9a at 4 °C for 1 h. A negative control reaction was performed by adding an equal volume of DMSO. Protein was denatured by adding 1% (v/v) formic acid. Chromatographic separation and mass spectrometry analysis were carried out as previously reported.[10] Analyses were carried out by ESI-qTOF-HRMS on an […] qTOF system (Sciex) embedding a Twin Sprayer ESI probe and coupled with an ExcionLC system (Sciex) controlled by SciexOS software v. 3.0.0. The injection volume was 10 μL (10 μg), and chromatographic separation was carried out with a bioZen WidePore C4 column (a 100 mm length, a 2.1 mm diameter, and a 2.6 μm particle size; Phenomenex).

BV2 cells = experiment: MTT viability assay in BV2 cells; type: cell-based, murine; settings: 10 μM, LPS/IFN-γ stimulation, 48 h
Experimental: BV2 murine microglial cells were cultured in DMEM supplemented with 10% heat-inactivated FBS, 100 IU/mL penicillin G, 100 mg/mL streptomycin, and 2.5 mg/mL amphotericin B and grown at 37 °C in 5% CO2 and a humidified atmosphere. […] After 30 min, LPS 100 ng/mL and IFN-γ 20 ng/mL were added to the medium for an additional 48 h.
Cell viability was determined by the MTT assay. Briefly, MTT (dissolved in PBS with a final concentration of 0.5 mg/mL) was added to the medium culture. After 2 h of incubation, the cells were mixed with DMSO and shaken for 10 min. Finally, the absorption of the samples was read by regulating the 570 nm filter as the main wavelength and the 630 nm filter as the referenced wavelength. The blank was subtracted from all samples to obtain pure cellular absorption. Results are expressed as the percentage of cell survival, taking 100% of the cells treated with the vehicle.

In the case of `C#CCN(C)Cc1ccc(Cn2nnc3c(Sc4nc5ccccc5o4)ncnc32)cc1` [Compound 9a, N-(4-((7-(Benzo[d]oxazol-2-ylthio)-3H-[1,2,3]triazolo[4,5-d]pyrimidin-3-yl)methyl)benzyl)-N-methylprop-2-yn-1-amine], the “adduct formation with bovine serum albumin” value (bovine albumin) is reported as “no adduct; also recorded: did not bind”, the “increase in molecular weight of csNOX5 dehydrogenase after reaction” value (csNOX5 dehydrogenase; 1 mM inhibitor, 4 °C, 1 h, vs DMSO-treated protein) is reported as 290 Da and 290.3 Da and the “covalent binding to csNOX5 dehydrogenase active-site cysteine” value (csNOX5 dehydrogenase; intact protein ESI-qTOF-HRMS) is reported as “covalent binding”. The BV2 cell viability (BV2 cells) was “negligible effects on cells viability”.
